Consider 8 compounds from US8470888B2, “Botryllamides and method of inhibiting PGP in a mammal afflicted with cancer” (The United States of America, as represented by the …, priority 2008, dated 2013).

Holding throughout (format): cell-based
One data set has as its target Pgp (Homo sapiens (Human), UniProt P08183). In words: Flow assay, rhodamine 123 efflux in transfected HEK293 cells expressing Pgp. To be noted: 10 μM compound; 0.5 μg/ml rhodamine 123.
In the next data set the target is ABCG2 (Homo sapiens (Human), UniProt Q9UNQ0). In words: Pheophorbide a accumulation assay for ABCG2 inhibitors in NCI-H460/MX20 cells. To be noted: for IC50: 1 μM pheophorbide a, 18 h; for Pheophorbide a max activity, % of FTC response: normalized to 10 μM FTC. The procedure:
Accumulation of pheophorbide a, a fluorescent ABCG2 substrate (Jonker et al., Proc. Natl. Acad. Sci. USA, 99: 15649-54 (2002) and Robey et al., Cancer Res., 64: 1242-6 (2004)), formed the basis of the assay for inhibitors of ABCG2 activity (Henrich et al., J. Biomol. Screen, 11: 176-83 (2006)). Briefly, NCI-H460/MX20 cells are transferred to black wall, clear bottom 384-well polylysine-coated assay plates (Corning, Corning, N.Y.) and allowed to attach for several hours. Pheophorbide a (1 μM final concentration) is added immediately followed by compounds or vehicle (DMSO/PBS) control and incubated an additional 18 h. After removal of medium and washing with PBS containing Ca^2+ and Mg^2+, fluorescence intensity is read on a Tecan Safire fluorescence plate reader in bottom read mode, 395 nm excitation, and 670 nm emission. Each plate has control wells containing 10 μM (final concentration) FTC. Data are normalized to FTC and reported as % of FTC fluorescence.

Another data set concerns the target MRP1 (Homo sapiens (Human), UniProt P33527). As to the kind of experiment: Flow assay, calcein efflux in transfected HEK293 cells expressing MRP1. To be noted: 10 μM compound; 200 nM calcein AM.

MRP1, sequence (P33527 whole entry): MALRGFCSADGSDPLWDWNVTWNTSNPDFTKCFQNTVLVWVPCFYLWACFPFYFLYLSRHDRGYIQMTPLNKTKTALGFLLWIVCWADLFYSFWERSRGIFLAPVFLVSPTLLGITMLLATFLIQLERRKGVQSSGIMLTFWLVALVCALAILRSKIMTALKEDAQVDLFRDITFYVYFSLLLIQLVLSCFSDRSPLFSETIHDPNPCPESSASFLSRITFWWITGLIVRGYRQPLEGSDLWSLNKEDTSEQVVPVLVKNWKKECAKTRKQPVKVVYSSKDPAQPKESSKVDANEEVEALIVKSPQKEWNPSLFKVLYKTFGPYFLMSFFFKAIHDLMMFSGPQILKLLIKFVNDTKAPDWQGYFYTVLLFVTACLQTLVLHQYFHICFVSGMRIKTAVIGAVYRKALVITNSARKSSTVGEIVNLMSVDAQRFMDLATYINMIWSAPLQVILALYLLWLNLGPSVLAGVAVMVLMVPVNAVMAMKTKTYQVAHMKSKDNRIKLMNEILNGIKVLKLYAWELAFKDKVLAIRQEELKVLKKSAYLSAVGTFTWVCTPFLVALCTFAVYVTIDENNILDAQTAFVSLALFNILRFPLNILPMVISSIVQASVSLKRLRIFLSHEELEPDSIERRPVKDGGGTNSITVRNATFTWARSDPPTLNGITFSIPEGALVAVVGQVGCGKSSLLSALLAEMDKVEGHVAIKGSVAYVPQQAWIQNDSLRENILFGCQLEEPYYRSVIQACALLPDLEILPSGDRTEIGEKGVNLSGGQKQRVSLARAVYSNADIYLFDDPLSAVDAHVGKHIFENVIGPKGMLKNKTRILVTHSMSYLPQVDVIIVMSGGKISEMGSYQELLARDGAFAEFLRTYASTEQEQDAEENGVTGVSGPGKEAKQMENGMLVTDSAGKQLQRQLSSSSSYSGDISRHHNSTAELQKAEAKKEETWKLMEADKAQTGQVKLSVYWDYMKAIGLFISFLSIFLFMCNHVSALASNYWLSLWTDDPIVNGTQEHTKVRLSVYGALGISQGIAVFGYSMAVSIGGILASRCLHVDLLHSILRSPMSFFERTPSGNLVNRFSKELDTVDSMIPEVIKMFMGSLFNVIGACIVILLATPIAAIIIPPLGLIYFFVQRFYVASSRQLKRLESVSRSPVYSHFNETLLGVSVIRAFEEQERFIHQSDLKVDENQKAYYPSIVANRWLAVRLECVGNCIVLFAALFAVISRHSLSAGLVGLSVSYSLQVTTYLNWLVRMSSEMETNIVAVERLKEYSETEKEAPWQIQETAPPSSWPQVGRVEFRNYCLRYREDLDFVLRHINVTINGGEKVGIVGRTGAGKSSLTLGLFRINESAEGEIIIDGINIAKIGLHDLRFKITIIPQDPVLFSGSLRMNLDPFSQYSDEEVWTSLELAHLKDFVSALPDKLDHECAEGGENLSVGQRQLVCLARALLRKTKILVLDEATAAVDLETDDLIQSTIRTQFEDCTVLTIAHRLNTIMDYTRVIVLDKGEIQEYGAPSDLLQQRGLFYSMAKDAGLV
Pgp, sequence (P08183 whole entry): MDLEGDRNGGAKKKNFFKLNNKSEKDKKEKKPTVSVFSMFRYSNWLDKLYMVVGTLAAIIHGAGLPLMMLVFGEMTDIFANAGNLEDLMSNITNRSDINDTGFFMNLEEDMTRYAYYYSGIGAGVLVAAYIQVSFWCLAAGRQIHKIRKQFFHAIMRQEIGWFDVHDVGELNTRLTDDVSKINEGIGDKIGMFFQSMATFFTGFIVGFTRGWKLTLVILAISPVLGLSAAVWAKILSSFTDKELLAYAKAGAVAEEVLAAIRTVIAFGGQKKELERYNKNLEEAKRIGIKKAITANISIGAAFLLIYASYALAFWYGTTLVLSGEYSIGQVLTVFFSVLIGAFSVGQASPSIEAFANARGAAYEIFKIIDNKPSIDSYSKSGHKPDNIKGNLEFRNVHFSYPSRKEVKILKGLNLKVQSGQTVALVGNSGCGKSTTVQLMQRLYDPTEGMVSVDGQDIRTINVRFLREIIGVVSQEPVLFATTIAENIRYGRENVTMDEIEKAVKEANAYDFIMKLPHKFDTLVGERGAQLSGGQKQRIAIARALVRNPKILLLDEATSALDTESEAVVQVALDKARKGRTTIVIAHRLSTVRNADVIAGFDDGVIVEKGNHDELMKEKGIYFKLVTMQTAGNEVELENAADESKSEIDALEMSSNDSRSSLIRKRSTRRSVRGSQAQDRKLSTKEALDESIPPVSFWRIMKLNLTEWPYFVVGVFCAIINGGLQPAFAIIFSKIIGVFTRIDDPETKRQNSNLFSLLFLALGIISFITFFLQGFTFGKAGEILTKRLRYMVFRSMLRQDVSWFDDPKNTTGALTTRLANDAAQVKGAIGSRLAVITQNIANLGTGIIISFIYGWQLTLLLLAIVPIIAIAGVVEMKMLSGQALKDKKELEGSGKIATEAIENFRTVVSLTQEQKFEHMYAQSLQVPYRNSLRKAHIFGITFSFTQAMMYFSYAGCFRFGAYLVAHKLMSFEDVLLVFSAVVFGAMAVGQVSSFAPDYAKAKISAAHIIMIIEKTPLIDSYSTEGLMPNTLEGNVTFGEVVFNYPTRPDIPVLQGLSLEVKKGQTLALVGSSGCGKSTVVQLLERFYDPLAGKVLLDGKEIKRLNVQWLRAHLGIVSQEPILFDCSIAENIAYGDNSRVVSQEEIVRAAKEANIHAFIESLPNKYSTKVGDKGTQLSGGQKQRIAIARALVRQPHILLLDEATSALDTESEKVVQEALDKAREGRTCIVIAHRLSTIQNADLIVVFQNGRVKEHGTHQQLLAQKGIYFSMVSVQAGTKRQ
ABCG2, sequence (Q9UNQ0 whole entry): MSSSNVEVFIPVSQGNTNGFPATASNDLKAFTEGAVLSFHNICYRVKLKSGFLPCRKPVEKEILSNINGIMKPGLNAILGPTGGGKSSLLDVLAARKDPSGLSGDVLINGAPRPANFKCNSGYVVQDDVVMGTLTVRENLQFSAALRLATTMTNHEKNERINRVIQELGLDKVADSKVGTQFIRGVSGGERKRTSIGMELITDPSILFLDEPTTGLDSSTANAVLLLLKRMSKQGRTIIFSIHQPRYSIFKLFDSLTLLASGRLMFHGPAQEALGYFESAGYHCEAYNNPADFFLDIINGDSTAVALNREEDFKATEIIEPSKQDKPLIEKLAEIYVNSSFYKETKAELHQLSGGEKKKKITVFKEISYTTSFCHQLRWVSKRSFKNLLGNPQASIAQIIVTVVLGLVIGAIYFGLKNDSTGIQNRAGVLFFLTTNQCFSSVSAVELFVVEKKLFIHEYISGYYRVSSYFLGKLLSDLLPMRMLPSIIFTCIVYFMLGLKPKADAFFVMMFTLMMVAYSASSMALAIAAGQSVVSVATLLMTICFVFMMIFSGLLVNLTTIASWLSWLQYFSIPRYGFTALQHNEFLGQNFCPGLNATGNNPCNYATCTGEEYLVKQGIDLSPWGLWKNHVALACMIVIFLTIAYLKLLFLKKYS

The IC50 is the concentration that inhibits the measured activity by half. Low readings indicate inhibition by little substance, high ones a need for much substance. Turning to `CO/C(=C\c1ccc(O)cc1)C(=O)N/C=C/c1cc(Br)c(OC)c(Br)c1` [Botryllamide A, botryllamide A], the “Flow-Pgp, Fold Increase (Pgp inhibition, rhodamine efflux: treated/control ratio)” value on Pgp was 17.63 fold. For the same compound, on ABCG2, the IC50 is 33 µM. Further, on ABCG2 (80 μM compound), the “Pheophorbide a max activity, % of FTC response” value (“Pheophorbide a max activity, %” below) turned out to be 89.7%. The “Flow-MRP1, Fold Increase (MRP1 inhibition, calcein efflux: treated/control ratio)” value at MRP1 is listed as 4.5 fold.
In the case of `CO/C(=C\c1ccc(O)cc1)C(=O)N/C=C/c1ccc(OC)c(Br)c1` [Botryllamide D, botryllamide D], the “Flow-Pgp, Fold Increase (Pgp inhibition, rhodamine efflux: treated/control ratio)” value on Pgp is 1.49 fold. The IC50 against ABCG2 is 16.4 µM. Moreover, the “Pheophorbide a max activity, %” value at ABCG2 (80 μM compound) worked out at 63.5%. At MRP1, the “Flow-MRP1, Fold Increase (MRP1 inhibition, calcein efflux: treated/control ratio)” value is listed as 2.39 fold.
Taken in the same sequence, the figures for `CO/C(=C\c1ccc(O)cc1)C(=O)N/C=C/c1ccc(OC)cc1` [Botryllamide E, botryllamide E] were 0.76 fold, 23.3 µM, 68.8% and 1.96 fold.
Regarding `CO/C(=C\c1ccc(O)cc1)C(=O)N/C=C/c1ccc(O)cc1` [Botryllamide F, botryllamide F], at Pgp, the “Flow-Pgp, Fold Increase (Pgp inhibition, rhodamine efflux: treated/control ratio)” value amounted to 0.59 fold. In addition, the IC50 on ABCG2 stood at 16.7 µM. Besides, the “Pheophorbide a max activity, %” value on ABCG2 (80 μM compound) came out at 81.0%. At MRP1, the “Flow-MRP1, Fold Increase (MRP1 inhibition, calcein efflux: treated/control ratio)” value is on record as 3.33 fold.
Turning to `CO/C(=C\c1ccc(O)cc1)C(=O)N/C=C/c1cc(Br)c(O)c(Br)c1` [Botryllamide G, botryllamide G], the “Flow-Pgp, Fold Increase (Pgp inhibition, rhodamine efflux: treated/control ratio)” value on Pgp turned out to be 0.68 fold. In addition, 6.9 µM corresponded to half-maximal inhibition against ABCG2 (IC50). In addition, the “Pheophorbide a max activity, %” value at ABCG2 (40 μM compound) was 123.7 (40 μM) %. The “Flow-MRP1, Fold Increase (MRP1 inhibition, calcein efflux: treated/control ratio)” value at MRP1 was 2.1 fold.
On to `CO/C(=C\c1ccc(O)cc1)C(=O)N/C=C/c1ccc(OC)cc1` [Botryllamide I, botryllamide I], for which, on Pgp, the “Flow-Pgp, Fold Increase (Pgp inhibition, rhodamine efflux: treated/control ratio)” value came out at 0.8 fold. Also, on ABCG2, the IC50 came to 41.4 µM. Moreover, at ABCG2 (80 μM compound), the “Pheophorbide a max activity, %” value turned out to be 71.3%. Further, the “Flow-MRP1, Fold Increase (MRP1 inhibition, calcein efflux: treated/control ratio)” value on MRP1 was 3.14 fold.
On to botryllamide B, for which the “Flow-Pgp, Fold Increase (Pgp inhibition, rhodamine efflux: treated/control ratio)” value at Pgp came to 1.95 fold. This compound also came in with a half-inhibitory concentration (IC50) on ABCG2 of 11.2 µM. In addition, at ABCG2 (40 μM compound), the “Pheophorbide a max activity, %” value was 84.3 (40 μM) %. The “Flow-MRP1, Fold Increase (MRP1 inhibition, calcein efflux: treated/control ratio)” value on MRP1 is 3.26 fold.
On to botryllamide J, for which, on Pgp, the “Flow-Pgp, Fold Increase (Pgp inhibition, rhodamine efflux: treated/control ratio)” value is 0.58 fold. The IC50 against ABCG2 came to 26.9 µM. Moreover, on ABCG2 (80 μM compound), the “Pheophorbide a max activity, %” value worked out at 70.5%. Moreover, the “Flow-MRP1, Fold Increase (MRP1 inhibition, calcein efflux: treated/control ratio)” value at MRP1 is reported as 2.54 fold.
